Each structure is given as a SMILES string. pIC50: −log10 of the molar value. A value given as a limit tells only on which side of the number the result lay.

This note sets out measurements from patent US20250032623A1, “HETEROBIFUNCTIONAL COMPOUNDS AND THEIR USE IN TREATING DISEASE” (HALDA THERAPEUTICS OPCO, INC., priority 2021, published 2025).

In one assay the target is T1, KRAS G12C (Homo sapiens, UniProt P01116, G12C).
T1 construct: Kras (aa 2-169), GST; purchased Reaction Biology Corporation (RBC)
In words: KRAS G12C nucleotide exchange assay (SOS1 mediated, HTRF). It is filed as biochemical. The settings on record: 1 hr pre-incubation at RT, read-out: IC50 (inhibition of KRas G12C). Here is the method: Exemplary compounds were tested for ability to inhibit KRas G12C.
KRAS target engagement (IC50 determination) was performed using a KRAS G12C nucleotide exchange assay (Reaction Biology Corporation). Specifically, compounds were tested against KRAS G12C in 10-point concentration IC50 mode with 3-fold serial dilution at a starting concentration of 10 μM. ARS1620 was used as a control. Compounds were pre-incubated with protein for 1 hr at RT. Parameters for the assay were:
In the method, Kras was mixed with a-GST Tb antibody (1.5× solution) and […] was delivered to reaction wells. Compounds were delivered using acoustic dispenser (Echo, Labcyte). Kras/aGST-Tb Ab/compound mixture was incubated for 1 hour at room temperature. A 3× solution of SOS1 and GTP* was prepared in reaction buffer. A […] aliquot of SOS1/GTP* solution was added to reaction well to initiate the exchange reaction. No—SOS1 reaction or max compound concentration was used as blank. IC50 determination was performed using a Sigmoidal dose response (variable slope) equation.

The subject of another assay is HEK293 cells. Description: Cellular growth inhibition assay (CellTiter-Glo), HEK293 cells. The conditions noted are these: Homo sapiens, 72 h, three days compound treatment, CellTiter-Glo 2.0, read-out: CTG HEK293 GI50. It is filed as cell-based. The essentials:
(§1)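 GI50 derived by four-parameter regression of luminescence (CellTiter-Glo 2.0) at Day 0 and Day 3, normalized to DMSO wells. Cells (HeLa, HEK293; 500/well, DMEM plus 10% FBS) were dosed with compound dilutions 24 h post-seeding and exposed for three days at 37 °C.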
(In ATP-based viability assays light output follows the ATP content of the culture.)

A further assay deals with HeLa cells. In words: Cellular growth inhibition assay (CellTiter-Glo), HeLa cells. It is filed as cell-based. The conditions noted are these: Homo sapiens, 72 h, three days compound treatment, CellTiter-Glo 2.0, read-out: CTG HELA GI50. The essentials:
as §1

T1 sequence (P01116 2-169 isoform P01116-2 G12C): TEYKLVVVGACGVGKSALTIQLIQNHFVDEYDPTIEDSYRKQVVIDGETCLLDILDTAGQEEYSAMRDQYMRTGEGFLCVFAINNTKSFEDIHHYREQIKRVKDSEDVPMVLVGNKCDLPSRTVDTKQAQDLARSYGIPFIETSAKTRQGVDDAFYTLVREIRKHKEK

On to `C=C(F)C(=O)N1CCN(c2nc(OCC3CCCN3CCOCCOCCOCCOCCOCCOCCOCCOCCNC(=O)c3cccc(-c4ccc5c(N6CCOCC6C)nc(N6CCOCC6C)nc5n4)c3)nc3c2CCN(c2cccc4cccc(Cl)c24)C3)CC1CC#N` [Compound I-21, 3-[2,4-bis[(3R)-3-methylmorpholin-4-yl]pyrido[2,3-d]pyrimidin-7-yl]-N-[2-[2-[2-[2-[2-[2-[2-[2-[2-[(2S)-2-[[7-(8-chloro-1-naphthyl)-4-[(3S)-3-(cyanomethyl)-4-(2-fluoroprop-2-enoyl)piperazin-1-yl]-6,8-dihydro-SH-pyrido[3,4-d]pyrimidin-2-yl]oxymethyl]pyrrolidin-1-yl]ethoxy]ethoxy]ethoxy]ethoxy]ethoxy]ethoxy]ethoxy]ethoxy]ethyl]benzamide], for which, at KRAS G12C, the pIC50 – broadly, the IC50 on a negative log10 scale, so that one unit is a factor of ten – is 6.00 to 7.00. The same measure, in the same setting: as for `C=C(F)C(=O)N1CCN(c2nc(OC[C@@H]3CCCN3CCOCCOCCNC(=O)c3ccc(Nc4ncc5c(n4)N(C4CCCC4)[C@H](CC)C(=O)N5C)c(OC)c3)nc3c2CCN(c2cccc4cccc(Cl)c24)C3)C[C@@H]1CC#N` [Compound I-63, N-(2-(2-(2-((S)-2-(((7-(8-chloronaphthalen-1-yl)-4-((S)-3-(cyanomethyl)-4-(2-fluoroacryloyl)piperazin-1-yl)-5,6,7,8-tetrahydropyrido[3,4-d]pyrimidin-2-yl)oxy)methyl)pyrrolidin-1-yl)ethoxy)ethoxy)ethyl)-4-(((R)-8-cyclopentyl-7-ethyl-5-methyl-6-oxo-5,6,7,8-tetrahydropteridin-2-yl)amino)-3-methoxybenzamide], the figure is greater than 7.00; as for `C=C(F)C(=O)N1CCN(c2nc(OC[C@@H]3CCCN3CCOCCOCCOCCOCCOCCOCCNC(=O)c3ccc(Nc4ncc5c(n4)N(C4CCCC4)[C@H](CC)C(=O)N5C)c(OC)c3)nc3c2CCN(c2cccc4cccc(Cl)c24)C3)C[C@@H]1CC#N` [Compound I-65, N-[2-[2-[2-[2-[2-[2-[2-[(2S)-2-[[7-(8-chloro-1-naphthyl)-4-[(3S)-3-(cyanomethyl)-4-(2-fluoroprop-2-enoyl)piperazin-1-yl]-6,8-dihydro-5H-pyrido1[3,4-d]pyrimidin-2-yl]oxymethyl]pyrrolidin-1-yl]ethoxy]ethoxy]ethoxy]ethoxy]ethoxy]ethoxy]ethyl]-4-[1[(7R)-8-cyclopentyl-7-ethyl-5-methyl-6-oxo-7H-pteridin-2-yl]amino]-3-methoxy-benzamide], 6.00 to 7.00; as for `Cc1ccnc(C(C)C)c1-n1c(=O)nc(N2CCN(C(=O)/C=C/CN(C)CCOCCOCCOCCOCCOCCOCCON(C)C(=O)N3N=C(c4cc(F)ccc4F)SC3(CCCN)c3ccccc3)C[C@@H]2C)c2cc(F)c(-c3c(O)cccc3F)nc21` (stereo partly shown) [Compound I-77], 5.30 to 6.00. Consider `CN(C/C=C/C(=O)N1CCN(c2nc(OC[C@@H]3CCCN3C)nc3c2CCN(c2cccc4cccc(Cl)c24)C3)C[C@@H]1CC#N)CCOCCOCCOCCOCCOCCOCCON(C)C(=O)N1N=C(c2cc(F)ccc2F)SC1(CCCN)c1ccccc1` (stereo partly shown) [Compound I-78], for which the pIC50 at KRAS G12C was greater than 7.00. For the same compound, the GI50 (usually the concentration at which growth is held to half of that of the control) in the assay with HEK293 cells is 500 to 1500 nM; with HeLa cells it was less than 500 nM. Consider `Cc1ccnc(C(C)C)c1-n1c(=O)nc(N2CCN(C(=O)/C=C/CN(C)CCOCCOCCOCCOCCOCCOCCOCCOCCON(C)C(=O)N3N=C(c4cc(F)ccc4F)SC3(CCCN)c3ccccc3)C[C@@H]2C)c2cc(F)c(-c3c(O)cccc3F)nc21` (stereo partly shown) [Compound I-79], for which the pIC50 on KRAS G12C is 5.30 to 6.00. On to `CN(C/C=C/C(=O)N1CCN(c2nc(OC[C@@H]3CCCN3C)nc3c2CCN(c2cccc4cccc(Cl)c24)C3)C[C@@H]1CC#N)CCOCCOCCOCCOCCOCCOCCOCCOCCON(C)C(=O)N1N=C(c2cc(F)ccc2F)SC1(CCCN)c1ccccc1` (stereo partly shown) [Compound I-80], for which the pIC50 at KRAS G12C is greater than 7.00. Besides, the values for the GI50 in the assay on HEK293 cells and with HeLa cells were 500 to 1500 nM and less than 500 nM, respectively.

Turning to `CC[C@@H]1C(=O)N(C)c2cnc(Nc3ccc(C(=O)NCCOCCN4CCN(C/C=C/C(=O)N5CCN(c6nc(OC[C@@H]7CCCN7C)nc7c6CCN(c6cccc8cccc(Cl)c68)C7)C[C@@H]5CC#N)CC4)cc3OC)nc2N1C1CCCC1` [Compound I-82], the pIC50 at KRAS G12C is greater than 7.00. Besides, the GI50 with HEK293 cells and with HeLa cells was less than 500 nM throughout. As to `CN(C/C=C/C(=O)N1CCN(c2nc(OC[C@@H]3CCCN3C)nc3c2CCN(c2cccc4cccc(Cl)c24)C3)C[C@@H]1CC#N)CCOCCOCCOCCOCCON(C)C(=O)N1N=C(c2cc(F)ccc2F)SC1(CCCN)c1ccccc1` (stereo partly drawn) [Compound I-96, 2-(3-aminopropyl)-N-[2-[2-[2-[2-[2-[[(E)-4-[(2S)-4-[7-(8-chloro-1-naphthyl)-2-[[(2S)-1-methylpyrrolidin-2-yl]methoxy]-6,8-dihydro-5H-pyrido[3,4-d]pyrimidin-4-yl]-2-(cyanomethyl)piperazin-1-yl]-4-oxo-but-2-enyl]-methylamino]ethoxy]ethoxy]ethoxy]ethoxy]ethoxy]-5-(2,5-difluorophenyl)-N-methyl-2-phenyl-1,3,4-thiadiazole-3-carboxamide], the pIC50 on KRAS G12C was greater than 7.00. Regarding `C=C(F)C(=O)N1CCN(c2nc(OC[C@@H]3CCCN3CCCN(C)C(=O)N3N=C(c4cc(F)ccc4F)S[C@@]3(CCCN)c3ccccc3)nc3c2CCN(c2cccc4cccc(Cl)c24)C3)C[C@@H]1CC#N` [Compound I-97, (2S)-2-(3-aminopropyl)-N-[3-[(2S)-2-[[7-(8-chloro-1-naphthyl)-4-[(3S)-3-(cyanomethyl)-4-(2-fluoroprop-2-enoyl)piperazin-1-yl]-6,8-dihydro-SH-pyrido[3,4-d]pyrimidin-2-yl]oxymethyl]pyrrolidin-1-yl]propyl]-5-(2,5-difluorophenyl)-N-methyl-2-phenyl-1,3,4-thiadiazole-3-carboxamide], the pIC50 on KRAS G12C was greater than 7.00. In addition, the GI50 in the assay on HeLa cells is 500 to 1500 nM. For `C=C(F)C(=O)N1CCN(c2nc(OC[C@@H]3CCCN3CCCNC(=O)c3ccc(Nc4ncc5c(n4)N(C4CCCC4)[C@H](CC)C(=O)N5C)c(OC)c3)nc3c2CCN(c2cccc4cccc(Cl)c24)C3)C[C@@H]1CC#N` [Compound I-102, N-[3-[(2S)-2-[[7-(8-chloro-1-naphthyl)-4-[(3S)-3-(cyanomethyl)-4-(2-fluoroprop-2-enoyl)piperazin-1-yl]-6,8-dihydro-5H-pyrido[3,4-d]pyrimidin-2-yl]oxymethyl]pyrrolidin-1-yl]propyl]-4-[[(7R)-8-cyclopentyl-7-ethyl-5-methyl-6-oxo-7H-pteridin-2-yl]amino]-3-methoxy-benzamide], the pIC50 at KRAS G12C was 6.00 to 7.00. The GI50 in the assay with HEK293 cells lay in the range of 500 to 1500 nM. In the same order, the values of `C=C(F)C(=O)N1CCN(c2nc(OC[C@@H]3CCCN3CCCOCCOCCNC(=O)c3ccc(Nc4ncc5c(n4)N(C4CCCC4)[C@H](CC)C(=O)N5C)c(OC)c3)nc3c2CCN(c2cccc4cccc(Cl)c24)C3)C[C@@H]1CC#N` [Compound I-103, N-[2-[2-[3-[(2S)-2-1[[7-(8-chloro-1-naphthyl)-4-[(3S)-3-(cyanomethyl)-4-(2-fluoroprop-2-enoyl)piperazin-1-yl]-6,8-dihydro-5H-pyrido1[3,4-d]pyrimidin-2-yl]oxymethyl]pyrrolidin-1-yl]propoxy]ethoxy]ethyl]-4-[1[(7R)-8-cyclopentyl-7-ethyl-5-methyl-6-oxo-7H-pteridin-2-yl]amino]-3-methoxy-benzamide] are greater than 7.00 and 500 to 1500 nM. Regarding `C=C(F)C(=O)N1CCN(c2nc(OC[C@@H]3CCCN3CCCOCCOCCOCCNC(=O)c3ccc(Nc4ncc5c(n4)N(C4CCCC4)[C@H](CC)C(=O)N5C)c(OC)c3)nc3c2CCN(c2cccc4cccc(Cl)c24)C3)C[C@@H]1CC#N` [Compound I-104, N-[2-[2-[2-[3-[(2S)-2-[[7-(8-chloro-1-naphthyl)-4-[(3S)-3-(cyanomethyl)-4-(2-fluoroprop-2-enoyl)piperazin-1-yl]-6,8-dihydro-5H-pyrido[3,4-d]pyrimidin-2-yl]oxymethyl]pyrrolidin-1-yl]propoxy]ethoxy]ethoxy]ethyl]-4-[[(7R)-8-cyclopentyl-7-ethyl-5-methyl-6-oxo-7H-pteridin-2-yl]amino]-3-methoxy-benzamide], the pIC50 at KRAS G12C was greater than 7.00. For the same compound, in the assay with HEK293 cells, the GI50 fell in the range of 500 to 1500 nM.

For the compound `C=C(F)C(=O)N1CCN(c2nc(OC[C@@H]3CCCN3CCCOCCOCCOCCOCCNC(=O)c3ccc(Nc4ncc5c(n4)N(C4CCCC4)[C@H](CC)C(=O)N5C)c(OC)c3)nc3c2CCN(c2cccc4cccc(Cl)c24)C3)C[C@@H]1CC#N` [Compound I-105, N-[2-[2-[2-[2-[3-[(2S)-2-[[7-(8-chloro-1-naphthyl)-4-[(3S)-3-(cyanomethyl)-4-(2-fluoroprop-2-enoyl)piperazin-1-yl]-6,8-dihydro-5H-pyrido[3,4-d]pyrimidin-2-yl]oxymethyl]pyrrolidin-1-yl]propoxy]ethoxy]ethoxy]ethoxy]ethyl]-4-[[(7R)-8-cyclopentyl-7-ethyl-5-methyl-6-oxo-7H-pteridin-2-yl]amino]-3-methoxy-benzamide], on KRAS G12C, the pIC50 is greater than 7.00. In addition, the GI50 with HEK293 cells was in the range of 500 to 1500 nM.
